PubChem BioAssay (NCI)
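Protocol summary: plate cells (96-well), add compound at 5 concentrations, incubate 48 h, interpolate endpoints linearly. The concentration for full growth arrest is given as TGI.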

Tests used:
Assay in all cases: NCI anticancer screen, dose series, 48 h
MDA-MB-231 breast = system: MDA-MB-231 breast
SF-539 CNS = system: SF-539 CNS
BT-549 breast = system: BT-549 breast
DU-145 prostate = system: DU-145 prostate
HOP-92 NSCLC = system: HOP-92 NSCLC
PC-3 prostate = system: PC-3 prostate
NCI/ADR-RES ovarian = system: NCI/ADR-RES ovarian
SK-MEL-5 melanoma = system: SK-MEL-5 melanoma
HCT-116 colon = system: HCT-116 colon
SW-620 colon = system: SW-620 colon

Structure (SMILES) | TGI (MDA-MB-231 breast) [µM] | TGI (SF-539 CNS) [µM] | TGI (BT-549 breast) [µM] | TGI (DU-145 prostate) [µM] | TGI (HOP-92 NSCLC) [µM] | TGI (PC-3 prostate) [µM] | TGI (NCI/ADR-RES ovarian) [µM] | TGI (SK-MEL-5 melanoma) [µM] | TGI (HCT-116 colon) [µM] | TGI (SW-620 colon) [µM]
N#Cc1c(-c2ccccc2)[nH]c2ccc(Cl)cc2c1=O | 89.7 | > 100 | 80.9 | > 100 | 51.1 | > 100 | > 100 | > 100 | > 100 | > 100
CCOC(=O)C1C(=O)CC1(C)C (stereo unspecified) | > 10 | > 10 | > 10 | > 10 | > 10 | > 10 | > 10 | > 10 | > 10 | > 10
Nc1nc(-c2ccccc2)cc(-c2ccc(OCc3ccccc3)cc2O)n1 | > 100 | > 100 | > 100 | > 100 | > 100 | > 100 | > 100 | 35.5 | > 100 | > 100
O=C(NC(Cc1ccccc1)(Cc1ccc(O)cn1)C(=O)O)c1ccccc1 (stereo unspecified) | > 100 | > 100 | > 100 | > 100 | > 100 | > 100 | > 100 | > 100 | > 100 | > 100
Cc1ccc(S(=O)(=O)N/N=C2/CCCOC2)cc1 | > 100 | > 100 | > 100 | > 100 | > 100 | > 100 | > 100 | > 100 | > 100 | > 100
Nc1nc(-[n+]2ccc(-c3ccncc3)cc2)nc(Cl)c1Cl | 95.9 | 68.1 | > 100 | > 100 | 48 | > 100 | > 100 | > 100 | > 100 | > 100
Cc1ccc2c3c1O[C@H]1c4[nH]c5ccccc5c4C[C@@]4(O)[C@@H](C2)N(CC2CC2)CC[C@]314 | 35.6 | 31.6 | 35.7 | 30.5 | 27.5 | 24.9 | 42.2 | 27.8 | 27.9 | 25.4
COC(=O)Nc1nc2ccc(S(=O)(=O)SC)cc2[nH]1 | 40.1 | 39.3 | 22.7 | 27.1 | 28 | 16.2 | 82.4 | > 100 | 24.5 | 25.2
CC(C)=CCC(O)[C@](C)(O)[C@H]1[C@H](O)C[C@@]2(C)[C@@H]3CCc4cc(O)c(OC5OC(CO)C(O)C(O)C5O)cc4C3(C)C(=O)C[C@]12C (stereo partly specified) | > 100 | > 100 | > 100 | > 100 | > 100 | > 100 | > 100 | > 100 | > 100 | > 100
Cc1ccc([N+](=O)[O-])c2c(NCCC[N+](C)(C)[O-])c3ccccc3nc12 | 6.28 | 9.76 | 4.81 | 8.19 | 5.04 | 4.41 | > 100 | 2.46 | 5 | > 72.6
CCN(CC)CCSc1c2cc(OC)ccc2nc2ccc(OC)cc12 | 19.9 | > 100 | 21 | 3.56 | 4.61 | 12.1 | > 25.9 | 27.7 | 3.42 | > 100
Clc1ccc(-c2cc3nc4ccccc4nc3o2)cc1 | > 100 | > 100 | > 100 | > 100 | > 100 | > 100 | > 100 | > 100 | > 100 | > 100
CCN1CCN(c2nc3ccccc3c3c2CCOc2ccccc2-3)CC1 | > 61.2 | > 65.2 | > 100 | > 31.6 | > 73.1 | > 90.9 | > 78.1 | 36.7 | > 59 | > 67.5
O=C1NC2O[C@H](CNC(=O)c3cc(Br)c[nH]3)CC2(O)N1 (mixture of isomers) | > 100 | > 100 | > 100 | > 100 | > 100 | > 100 | > 100 | > 100 | > 100 | > 100
COc1cc(Br)cc2cc(-c3cn4c(n3)sc3ccccc34)c(=O)oc12 | 72.5 | > 75 | 70.7 | 48.1 | 47.5 | 41.2 | > 75 | > 75 | > 75 | > 75
CCOC(=O)Cc1nc2cc(F)c(F)cc2[nH]c1=O | > 100 | > 100 | > 100 | > 100 | > 100 | > 100 | > 100 | > 100 | > 100 | > 100

Structure (SMILES) | TGI (MDA-MB-231 breast) [µM] | TGI (SF-539 CNS) [µM] | TGI (BT-549 breast) [µM] | TGI (DU-145 prostate) [µM] | TGI (HOP-92 NSCLC) [µM] | TGI (PC-3 prostate) [µM] | TGI (NCI/ADR-RES ovarian) [µM] | TGI (SK-MEL-5 melanoma) [µM] | TGI (HCT-116 colon) [µM] | TGI (SW-620 colon) [µM]
CCc1cc(Cc2cc(CC)c(NC(=O)C(=O)CC(=O)c3sc(-c4cccnc4)nc3C)c(CC)c2)cc(CC)c1NC(=O)C(=O)CC(=O)c1sc(-c2cccnc2)nc1C | > 100 | > 100 | > 100 | > 100 | > 100 | > 100 | > 100 | > 100 | > 100 | > 100
COc1cc(-c2nc3ccccn3c2/N=C/c2cc(Br)cc(Br)c2O)ccc1O | 36.3 | 90.2 | 53.3 | 84.3 | 50.8 | 65.8 | 64.5 | 72.4 | 34.7 | 71.2
COCc1nc2c(OC)c(-c3nc4nc(N5CCN(C)CC5)ccc4[nH]3)cc(OC)c2n1C | 46.4 | 27.1 | > 100 | > 100 | > 100 | 63.4 | > 100 |  | > 100 | > 100
COC(=O)c1cc2c(cc1CC(Cc1ccc3c(c1)CCCC3)C(=O)OC)CCCC2 (stereo unspecified) | > 100 | > 100 | > 100 | > 100 | > 100 | > 100 | > 100 | > 100 | > 100 | > 100
O=C(NCP(=O)(c1ccccc1)c1ccccc1)OCc1ccccc1 | > 100 | > 100 | > 100 | > 100 | > 100 | > 100 | > 100 | > 100 | > 100 | > 100
CC(=O)[C@@H](C)C(=O)N1C(=O)OC[C@@]12[C@@H]1CC[C@@H](C1)C2(C)C | > 100 | > 100 | > 100 | > 100 | > 100 | > 100 | > 100 | > 100 | > 100 | > 100
O=C1CC(c2cccc([N+](=O)[O-])c2)C2(C(=O)NC(=O)NC2=O)C(c2cccc([N+](=O)[O-])c2)C1 (stereo unspecified) | > 100 | > 100 | > 100 | > 100 | > 100 | > 100 | > 100 | > 100 | 42.8 | > 100
COC(=O)c1cc2c(cc1Cl)Sc1nnc(Nc3ccc(C)cc3)n1S2(=O)=O | 27.2 | 2.92 | 30.5 | 7.31 | 16.5 | 18 | 25.7 | 27.6 | 24.5 | 
CCOC(=O)c1c(N2CCOCC2)[nH]c(=O)c(C(c2c(Cl)cccc2Cl)c2c(O)c(C(=O)OCC)c(N3CCOCC3)[nH]c2=O)c1O | 24.9 | 11 | 19.6 | 24.6 | 8.56 | 29.1 | 33.8 | 16.1 | 8.83 | 3.11
CSc1nnc(SC)nn1 | 39.7 | 32.1 | 29.7 | 45.4 | 14.8 | 33.7 | 31.9 | 29.6 | 23.9 | 35.5
Nc1ccc(Cc2c(N)[nH]c(=O)[nH]c2=O)cc1 | > 100 | > 100 | > 100 | > 100 | > 100 | > 100 | > 100 | > 100 | > 100 | > 100
CO/C=C(/C(=O)OC)c1ccccc1COc1cccc(C(F)(F)F)c1 | 68.8 | > 100 | > 100 | > 100 | 50.5 | > 100 | > 100 | 14.5 | > 100 | 
O=c1cc(N2CCCC2)[nH]c(=O)n1-c1cccc(Cl)c1 | > 100 | > 100 | > 100 | > 100 | > 100 | > 100 | > 100 |  | > 100 | > 100
CCOC(=O)c1cn2c(n1)sc1cc(Cl)ccc12 | > 100 | 26 | > 100 | > 100 | > 100 | > 100 | > 100 | > 100 | 13.6 | > 100
CN(C)CCCN=c1c2ccccc2n(O)c2ccccc12 | > 100 | > 100 | 63.4 | > 100 | > 100 | > 100 | > 100 | > 100 | > 100 | > 100
CCCCCCCCCCCC(=O)OCC(C[As](=O)(O)O)OC(=O)CCCCCCCCCCC (stereo unspecified) | 16 | 32 | 23.3 | 35.6 | 4.29 | 9.52 | 44.5 | 3.64 | 18.3 | 26.8
